Results from paper PMC2818973 (Journal of medicinal chemistry, 2010).

Conditions: mouse, in vivo, iv

CC(=NNc1ccc(I)cn1)c1ccc2c(c1)C1C=CCC1C(c1cc3c(cc1Br)OCO3)N2 (stereo not shown) [Compound 9, N-{1-[4-(6-Bromo-benzo[1,3]dioxol-5-yl)-3a,4,5,9b-tetrahydro-3H-cyclopenta[c]quinolin-8-yl]-ethylidene}-N′-(5-iodo-pyridin-2-yl)-hydrazine]
metabolism and clearance (in words): rapidly metabolized and eliminated via the hepatobiliary system
